Earlier results in patent publication US5872104A, “Combinations and methods for reducing antimicrobial resistance” (Oridigm Corporation, priority 1994, dated 1999).
Converted amounts (≈) assume the structure as drawn. “And” between values parts separate entries of the source, which are not always exact repeats. Equal values may be shown once. Read-outs that look alike come from different tables or passages of the source.

Assays:
Corynebacterium JK = details: cited from earlier work
[1] = tested on: Haemophilus influenzae (penicillin resistant); details: cited from earlier work
Ureaplasma urealyticum = details: cited from earlier work
Legionella spp. = details: cited from earlier work
[2] = tested on: Streptococcus pyogenes (group A), erythromycin susceptible; details: cited from earlier work
Listeria monocytogenes [3] = details: in µg/mL; cited from earlier work
[4] = tested on: Staphylococcus epidermidis; details: cited from earlier work
Legionella pneumophila = details: in µg/mL; cited from earlier work
[5] = tested on: Staphylococcus aureus, methicillin susceptible; details: in µg/mL; cited from earlier work
[6] = tested on: Staphylococcus aureus (penicillin susceptible); details: cited from earlier work
Streptococcus pyogenes = details: cited from earlier work
Chlamydia trachomatis = details: in µg/mL; cited from earlier work
Campylobacter jejuni = details: in µg/mL; cited from earlier work
Haemophilus influenzae = details: cited from earlier work
[7] = tested on: Staphylococcus aureus (penicillin resistant); details: cited from earlier work
Nocardia asteroides = details: cited from earlier work
[8] = tested on: Staphylococcus coagulase .phi. (β-lactamase producer); details: cited from earlier work
Borrelia burgdorferi = details: cited from earlier work
Haemophilus ducreyi = details: cited from earlier work
Bacteroides fragilis [9] = details: anaerobes; in µg/mL; cited from earlier work
Bordetella pertussis [10] = details: cited from earlier work
[11] = tested on: Staphylococcus coagulase .phi.; details: cited from earlier work
[12] = tested on: Haemophilus influenzae (penicillin susceptible); details: cited from earlier work
Streptococcus pneumoniae = details: in µg/mL; cited from earlier work
Listeria monocytogenes [13] = details: in µg/mL; cited from earlier work; remark: listed apart in the source
Bordetella parapertussis = details: cited from earlier work
Clostridium perfringens = details: anaerobes; in µg/mL; cited from earlier work
N. meningitidis = details: in µg/mL; cited from earlier work
Enterococcus faecium = details: cited from earlier work
Campylobacter pylori = details: cited from earlier work
Streptococcus agalactiae = details: cited from earlier work
Bacillus spp. = details: cited from earlier work
[14] = tested on: Staphylococcus aureus (methicillin susceptible); details: in µg/mL; cited from earlier work
Mycoplasma pneumoniae [15] = details: cited from earlier work
[16] = tested on: Neisseria gonorrhoeae (non β-lactamase producer); details: cited from earlier work
[17] = in vivo; cited from earlier work
Streptococcus spp. = details: cited from earlier work
Staphylococcus aureus = details: cited from earlier work
[18] = tested on: Chlamydia pneumoniae (formerly TWAR); details: in µg/mL; cited from earlier work
[19] = tested on: Streptococcus agalactactiae (group B); details: in µg/mL; cited from earlier work
Mycoplasma pneumoniae [20] = details: in µg/mL; cited from earlier work
Bordetella pertussis [21] = details: in µg/mL; cited from earlier work
[22] = tested on: Branhamella (Moraxella) catarrhalis; details: cited from earlier work
Enterococcus spp. = details: cited from earlier work
Staphylococcus hominis = details: cited from earlier work
Neisseria gonorrhoeae [23] = details: cited from earlier work
Neisseria gonorrhoeae [24] = details: in µg/mL; cited from earlier work
[25] = tested on: Haemophilus parainfluenzae; details: cited from earlier work
Neisseria meningitidis = details: cited from earlier work
Bacteroides fragilis [26] = details: cited from earlier work
[27] = tested on: Staphylococcus coagulase .phi. (non β-lactamase producer); details: cited from earlier work
[28] = tested on: Bordetella bronchiseptica; details: cited from earlier work
Viridans streptococci = details: cited from earlier work
[29] = tested on: Staphylococcus haemolyticus; details: cited from earlier work
Moraxella catarrhalis = details: in µg/mL; cited from earlier work
S. aureus = details: agar disc susceptibility test; cited from earlier work

CC[C@H]1OC(=O)[C@H](C)[C@@H](O[C@H]2C[C@@](C)(OC)[C@@H](O)[C@H](C)O2)[C@H](C)[C@@H](O[C@@H]2O[C@H](C)C[C@H](N(C)C)[C@H]2O)[C@](C)(O)C[C@@H](C)C(=O)[C@H](C)[C@@H](O)[C@]1(C)O [Erythromycin]
MIC50 (Corynebacterium JK): 2 µg/mL (≈ 2.73 µM) | MIC90 (Corynebacterium JK): ≥ 64 µg/mL | MIC50 [1]: 8 µg/mL (≈ 10.9 µM) | MIC90 [1]: 16 µg/mL (≈ 21.8 µM) | Range [1]: 8-16 | MIC90 (Ureaplasma urealyticum): 32 µg/mL (≈ 43.6 µM) | MIC90 (Legionella spp.): 0.25 µg/mL (≈ 0.341 µM) | MIC90 [2]: 0.03 µg/mL (≈ 0.0409 µM) | MIC90 (Listeria monocytogenes [3]): 0.5-2.0 | MIC50 [4]: ≥ 64 µg/mL | MIC90 [4]: ≥ 64 µg/mL | MIC90 (Legionella pneumophila): 1.0-2.0 | MIC90 [5]: 0.25-0.50 | MIC90 [6]: 0.5 µg/mL (≈ 0.681 µM) | MIC50 ([6]; in µg/mL): 0.5 and 0.25 | MIC50 (Streptococcus pyogenes): 0.06 µg/mL (≈ 0.0818 µM) | MIC90 (Chlamydia trachomatis): 0.12-0.25 | MIC90 (Campylobacter jejuni): 4 and 2 | Range (Haemophilus influenzae): 0.5-8 | MIC50 (Haemophilus influenzae; in µg/mL): 2 and 1 | MIC50 [7]: 0.25 µg/mL (≈ 0.341 µM) | MIC90 [7]: ≥ 32 µg/mL | MIC50 (Nocardia asteroides): ≥ 8 µg/mL | MIC90 (Nocardia asteroides): ≥ 8 µg/mL | MIC90 [8]: 4 µg/mL (≈ 5.45 µM) | Range [8]: 0.06-16 | MIC50 (Borrelia burgdorferi): 0.03 µg/mL (≈ 0.0409 µM) | MIC90 (Borrelia burgdorferi): 0.06 µg/mL (≈ 0.0818 µM) | MIC50 (Haemophilus ducreyi): 0.004 µg/mL (≈ 0.00545 µM) | MIC90 (Haemophilus ducreyi): 0.06 µg/mL (≈ 0.0818 µM) | MIC90 (Bacteroides fragilis [9]): 4.0-32.0 | MIC50 (Bordetella pertussis [10]): 0.25 µg/mL (≈ 0.341 µM) | MIC50 [11]: 0.25 µg/mL (≈ 0.341 µM) | MIC50 [12]: 8 µg/mL (≈ 10.9 µM) | MIC90 [12]: 16 µg/mL (≈ 21.8 µM) | Range [12]: 0.25-16 | MIC90 (Streptococcus pneumoniae): 0.03-1.0 | MIC50 (Listeria monocytogenes [13]): 0.5 and 0.25 | MIC50 (Bordetella parapertussis): 0.25 µg/mL (≈ 0.341 µM) | MIC90 (Bordetella parapertussis): 0.25 µg/mL (≈ 0.341 µM) | MIC90 (Clostridium perfringens): 1.0 | MIC90 (N. meningitidis): 0.4-1.6 | MIC50 (Enterococcus faecium): 1 µg/mL (≈ 1.36 µM) | MIC90 (Enterococcus faecium): ≥ 64 µg/mL | MIC50 (Campylobacter pylori): 0.5 µg/mL (≈ 0.681 µM) | Range (Campylobacter pylori): 0.25-16 | MIC50 (Streptococcus agalactiae): 0.03 µg/mL (≈ 0.0409 µM) | Range (Streptococcus agalactiae): 0.03-0.25 | MIC50 (Bacillus spp.): 0.25 µg/mL (≈ 0.341 µM) | MIC90 (Bacillus spp.): 2 µg/mL (≈ 2.73 µM) | Range (Bacillus spp.): 0.03-2 | MIC50 [14]: 0.25 and 0.5 | MIC90 (Mycoplasma pneumoniae [15]): ≤ 0.004 µg/mL | Range [16]: 0.015-4 and 0.03-2 | clinical safety [17]: one of the safest antibiotics in current clinical use | MIC50 (Streptococcus spp.): 0.03 µg/mL (≈ 0.0409 µM) | MIC90 (Streptococcus spp.): 1 µg/mL (≈ 1.36 µM) | MIC50 (Staphylococcus aureus): 0.5 µg/mL (≈ 0.681 µM) | MIC90 [18]: 0.065-1.0 | MIC90 [19]: 0.03-0.25 | MIC90 (Mycoplasma pneumoniae [20]): 0.004 | MIC90 (Bordetella pertussis [21]): 0.3-1.6 | MIC50 [22]: 0.25 µg/mL (≈ 0.341 µM) | MIC50 (Enterococcus spp.): 2 µg/mL (≈ 2.73 µM) | MIC90 (Enterococcus spp.): ≥ 32 µg/mL | MIC50 (Staphylococcus hominis): ≥ 64 µg/mL | MIC90 (Staphylococcus hominis): ≥ 64 µg/mL | MIC50 (Neisseria gonorrhoeae [23]): 0.25 µg/mL (≈ 0.341 µM) | MIC90 (Neisseria gonorrhoeae [23]): 1 µg/mL (≈ 1.36 µM) | Range (Neisseria gonorrhoeae [23]): 0.0075-8 | MIC90 (Neisseria gonorrhoeae [24]): 0.25-2.0 | MIC50 [25]: 2 µg/mL (≈ 2.73 µM) | MIC90 [25]: 4 µg/mL (≈ 5.45 µM) | Range [25]: 0.5-8 | MIC50 (Neisseria meningitidis): 1 µg/mL (≈ 1.36 µM) | MIC90 (Neisseria meningitidis): 8 µg/mL (≈ 10.9 µM) | Range (Neisseria meningitidis): 0.5-8 | MIC50 (Bacteroides fragilis [26]): 1 µg/mL (≈ 1.36 µM) | MIC90 (Bacteroides fragilis [26]): 8 µg/mL (≈ 10.9 µM) | Range (Bacteroides fragilis [26]): ≤0.25-16 | MIC90 [27]: 0.25 µg/mL (≈ 0.341 µM) | Range [27]: 0.03-8 | MIC50 [28]: 8 µg/mL (≈ 10.9 µM) | MIC90 [28]: 32 µg/mL (≈ 43.6 µM) | Range [28]: 4-32 | MIC90 (Viridans streptococci): 0.06 µg/mL (≈ 0.0818 µM) | MIC50 [29]: ≥ 64 µg/mL | MIC90 [29]: ≥ 64 µg/mL | MIC90 (Moraxella catarrhalis): 0.25-2.0 | MIC90 (S. aureus): about 4 μg/ml
